Results: patent US7476764B2, “Phenylcarboxyamides as beta-secretase inhibitors” (Bristol-Myers Squibb Company, priority 2005, dated 2009)
Counter-ions that a name gives are not always drawn.

Target: T1, BACE1 enzyme (Homo sapiens, UniProt P56817)
T1 construct: The HEK293-9B.A1 cell line, which overexpresses the BACE1 enzyme, was derived from HEK293 cells; endogenous in cells; washed 48,000 x g pellet of the cell homogenate
Experiment: Radioligand displacement assay with a radiolabeled BACE inhibitor on HEK293-9B.A1 cell homogenate
Assay type: binding
Settings: displacement of 1 nM tritiated radioligand, HEK293-9B.A1 homogenate, pH 5.0, 1.5 hr at 25° C.; read-out: Activity Rating (activity based on IC50 values)
Protocol: Radioligand displacement assays with a radiolabeled BACE inhibitor (WO 2004 013098, compound 3, where the methoxy group is substituted for C(^3H)3) were carried out using standard methods (Keen, M. (1999) in Receptor Binding Techniques (Walker, J. M. ed) p. 106 Humana Press, Totowa, N.J.). The HEK293-9B.A1 cell line, which overexpresses the BACE1 enzyme, was derived from HEK293 cells (Simmons, N. L. (1990) A cultured human renal epitheloid cell line responsive to vasoactive intestinal peptide. Exp. Physiol. 75:309-19.) by RAGE™ (Harrington, J. J. et al. (2001) Creation of genome-wide protein expression libraries using random activation of gene expression. Nat. Biotechnol. 19:440-5; U.S. Pat. Nos. 6,410,266 and 6,361,972). T225 flask cultures of HEK293-9B.A1 were grown to 80% confluency in DMEM supplemented with 2 mM L-glutamine, 10 μg/ml penicillin, 10 μg/ml streptomycin, 3 μg/ml puromycin, 100 nM methotrexate, and 10% fetal bovine serum (Invitrogen, Carlsbad, Calif.), harvested, and resuspended at 2×10^8 cells per 10 ml of lysis buffer consisting of 50 mM HEPES pH 7.0 containing a protease inhibitor cocktail of AEBSF 104 μM, aprotinin 80 nM, leupeptin 2 μM, bestatin 4 μM, pepstatin A 1.5 μM, and E-64 1.4 μM (0.1% of protease inhibitor cocktail P8340, Sigma-Aldrich, St. Louis, Mo.) at 4° C. The resuspended cells were homogenized using a Polytron (Brinkman, Westbury, N.Y.) at setting 6 for 10 sec., then centrifuged at 48,000×g for 10 min. The resulting pellet was washed by repeating the resuspension, homogenization and centrifugation steps. The final pellet was resuspended in buffer at 4° C. to yield a total protein concentration of 5 mg/ml, then aliquots were frozen in liquid nitrogen for further storage at −70° C. Immediately before carrying out a binding assay, an aliquot of cell homogenate was thawed and diluted to a concentration of 100 μg/ml in assay buffer consisting of 50 mM HEPES pH 5.0 and 0.1% CHAPSO. Assays were initiated in polypropylene 96-well plates (Costar, Cambridge, Mass.) by the addition of 200 μl of cell homogenate to 50 μl of assay buffer containing 1 nM radioligand (WO 2004 013098, compound 3, where the methoxy group is substituted for C(^3H)3: 80 Ci/mMol) and various concentrations of unlabelled compounds, and incubated for 1.5 hr. at 25° C. Separation of bound from free radioligand was by filtration on GFF glass fiber filters (Innotech Biosystems International, Lansing, Mich.) using an Innotech cell harvester.

T1 sequence (P56817 46-501): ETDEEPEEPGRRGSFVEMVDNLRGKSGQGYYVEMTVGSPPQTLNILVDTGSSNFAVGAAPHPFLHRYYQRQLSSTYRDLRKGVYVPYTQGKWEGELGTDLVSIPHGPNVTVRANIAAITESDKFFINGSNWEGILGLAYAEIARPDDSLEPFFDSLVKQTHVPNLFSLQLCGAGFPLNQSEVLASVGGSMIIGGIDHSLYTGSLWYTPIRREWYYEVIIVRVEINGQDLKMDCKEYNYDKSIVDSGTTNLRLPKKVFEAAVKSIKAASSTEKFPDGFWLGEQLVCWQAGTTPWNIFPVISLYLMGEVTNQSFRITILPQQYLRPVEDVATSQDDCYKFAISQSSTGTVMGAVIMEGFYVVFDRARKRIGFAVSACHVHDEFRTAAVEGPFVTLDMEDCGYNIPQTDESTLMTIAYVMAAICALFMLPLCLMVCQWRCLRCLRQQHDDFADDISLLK

CCCO/N=C(\C)c1cc(C(=O)N[C@@H](Cc2cc(F)cc(F)c2)[C@H](O)CNCc2cccc(OC)c2)cc(N(C)S(C)(=O)=O)c1 [Example 32, N-((2S,3R)-4-(3-methoxybenzylamino)-1-(3,5-difluorophenyl)-3-hydroxybutan-2-yl)-3-((E)-1-(propoxyimino)ethyl)-5-(N-methylmethan-2-ylsulfonamido)benzamide TFA salt]
IC50: 0.1 to 1 µM

CO/N=C(\C)c1cc(C(=O)N[C@@H](Cc2cc(F)cc(F)c2)[C@H](O)CNCc2cccc(OC)c2)cc(N2CCCCS2(=O)=O)c1 [Example 24, N-[(1S,2R)-1-(3,5-difluoro-benzyl)-2-hydroxy-3-(3-methoxy-benzylamino)-propyl]-3-(1,1-dioxo-1λ^6-[1,2]thiazinan-2-yl)-5-{1-[(E)-methoxyimino]-ethyl}-benzamide TFA salt]
IC50: < 0.1 µM

CCCN(C)C(=O)c1cc(C(=O)N[C@@H](Cc2cc(F)cc(F)c2)[C@H](O)CNCc2cccc(OC)c2)cc(/C(C)=N/O)c1 [Example 9, N^1-((2S,3R)-4-(3-methoxybenzylamino)-1-(3,5-difluorophenyl)-3-hydroxybutan-2-yl)-5-((E)-1-(hydroxyimino)ethyl)-N^3-methyl-N^3-propylisophthalamide hydrochloride]
IC50: < 0.1 µM

C=CCO/N=C(\C)c1cc(C(=O)N[C@@H](Cc2cc(F)cc(F)c2)[C@H](O)CNCc2cccc(OC)c2)cc(N(C)S(C)(=O)=O)c1 [Example 34, N-((2S,3R)-4-(3-methoxybenzylamino)-1-(3,5-difluorophenyl)-3-hydroxybutan-2-yl)-3-((E)-1-(allyloxyimino)ethyl)-5-(N-methylmethan-2-ylsulfonamido)benzamide TFA salt]
IC50: < 0.1 µM

C=CCO/N=C(\C)c1cc(C(=O)N[C@@H](Cc2cc(F)cc(F)c2)[C@H](O)CNCc2cccc(OC)c2)cc(C(=O)N(CCC)CCC)c1 [Example 7, N^1-((2S,3R)-4-(3-methoxybenzylamino)-1-(3,5-difluorophenyl)-3-hydroxybutan-2-yl)-5-((E)-1-(allyloxyimino)ethyl)-N^3,N^3-dipropylisophthalamide TFA salt]
IC50: < 0.1 µM

CCCN(CCC)C(=O)c1cc(C(=O)N[C@@H](Cc2cc(F)cc(F)c2)[C@H](O)CNCc2cccc(OC)c2)cc(/C(C)=N/OCc2ccccc2)c1 [Example 4, N^1-((2S,3R)-4-(3-methoxybenzylamino)-1-(3,5-difluorophenyl)-3-hydroxybutan-2-yl)-5-((E)-1-(benzyloxyimino)ethyl)-N^3,N^3-dipropylisophthalamide TFA salt]
IC50: < 0.1 µM

CCCN(C)C(=O)c1cc(C(=O)N[C@@H](Cc2cc(F)cc(F)c2)[C@H](O)CNCc2cccc(OC)c2)cc(/C(C)=N/OCc2ccccc2)c1 [Example 11, N^1-((2S,3R)-4-(3-methoxybenzylamino)-1-(3,5-difluorophenyl)-3-hydroxybutan-2-yl)-5-((E)-1-(benzyloxyimino)ethyl)-N^3-methyl-N^3-propylisophthalamide hydrochloride]
IC50: < 0.1 µM

CO/N=C(/C)c1cc(C(=O)NC(C)c2ccc(F)cc2)cc(C(=O)N[C@@H](Cc2cc(F)cc(F)c2)[C@H](O)CNCc2cccc(OC)c2)c1 (stereo partly drawn) [Example 50, N^1-((2S,3R)-4-(3-methoxybenzylamino)-1-(3,5-difluorophenyl)-3-hydroxybutan-2-yl)-N^3-(1-(4-fluorophenyl)ethyl)-5-((Z)-1-(methoxyimino)ethyl)isophthalamide TFA salt]
IC50: < 0.1 µM

CCCN(CCC)C(=O)c1cc(C(=O)N[C@@H](Cc2cc(F)cc(F)c2)[C@H](O)CNCc2cccc(OC)c2)cc(C(C)O)c1 (stereo partly drawn) [Example 2, N^1-((2S,3R)-4-(3-methoxybenzylamino)-1-(3,5-difluorophenyl)-3-hydroxybutan-2-yl)-5-(1-hydroxyethyl)-N^3,N^3-dipropylisophthalamide TFA salt]
IC50: < 0.1 µM

CCCN(C)C(=O)c1cc(C(=O)N[C@@H](Cc2cc(F)cc(F)c2)[C@H](O)CNCc2cccc(OC)c2)cc(C(C)O)c1 (stereo partly shown) [Example 15, hydrochloride]
IC50: < 0.1 µM

COc1cccc(CNC[C@@H](O)[C@H](Cc2cc(F)cc(F)c2)NC(=O)c2cc(/C(C)=N/OCC(C)C)cc(S(C)(=O)=O)c2)c1 [Example 20, N-((2S,3R)-4-(3-methoxybenzylamino)-1-(3,5-difluorophenyl)-3-hydroxybutan-2-yl)-3-((E)-1-(isobutoxyimino)ethyl)-5-(methylsulfonyl)benzamide TFA salt]
IC50: > 1 µM

C=CCO/N=C(\C)c1cc(C(=O)N[C@@H](Cc2cc(F)cc(F)c2)[C@H](O)CNCc2cccc(OC)c2)cc(C(=O)N(C)CCC)c1 [Example 13, N^1-((2S,3R)-4-(3-methoxybenzylamino)-1-(3,5-difluorophenyl)-3-hydroxybutan-2-yl)-5-((E)-1-(allyloxyimino)ethyl)-N^3-methyl-N^3-propylisophthalamide hydrochloride]
IC50: < 0.1 µM

COc1cccc(CNC[C@@H](O)[C@H](Cc2cc(F)cc(F)c2)NC(=O)c2cc(/C(C)=N/OCc3ccccc3)cc(N(C)S(C)(=O)=O)c2)c1 [Example 31, N-((2S,3R)-4-(3-methoxybenzylamino)-1-(3,5-difluorophenyl)-3-hydroxybutan-2-yl)-3-((E)-1-(benzyloxyimino)ethyl)-5-(N-methylmethan-2-ylsulfonamido)benzamide TFA salt]
IC50: < 0.1 µM
